According to patent publication US6552015B2, “Azabicycloalkane derivatives and therapeutic uses thereof” (Pfizer Inc., priority 2000, dated 2003):
Counter-ions that a name gives are not always drawn.

Structure (SMILES) | melting point
O=c1[nH]c2ccccc2c(=O)n1CCCN1C2CCC1CN(c1ccc(F)cc1)C2 (as salt: maleate) | 70 to 74 °C
O=c1[nH]c2c(Cl)cccc2c(=O)n1CCCN1C2CCC1CN(c1ccc(C(F)(F)F)cc1)C2 (as salt: maleate) | 205 to 207 °C
O=c1[nH]c2ccccc2c(=O)n1CCCCN1C2CCC1CN(c1ccc(Cl)cc1)C2 (as salt: maleate) | 187 to 189 °C
O=c1[nH]c2ccccc2c(=O)n1CCCN1C2CCC1CN(c1ccc(Cl)c(Cl)c1)C2 (as salt: maleate) | 105 to 108 °C (dec.)
Cc1ccc(N2CC3CCC(C2)N3CCCn2c(=O)[nH]c3c(Cl)cccc3c2=O)c(C)c1 (as salt: maleate) | 217 to 219 °C
O=c1[nH]c2c(Cl)cccc2c(=O)n1CCCN1CC2CC1CN2c1ccc(Cl)cc1 (stereo not shown) (as salt: maleate) [Example 41, 8-CHLORO-3-{3-[5-(4-CHLORO-PHENYL)-2,5-DIAZA-BICYCLO[2.2.1]HEPT-2-YL]-PROPYL}-1H-QUINAZOLINE-2,4-DIONE] | 205 to 207 °C
O=c1[nH]c2c(Cl)cccc2c(=O)n1CCCN1C2CCC1CN(c1ccc(F)cc1)C2 (as salt: maleate) | 173 to 175 °C
O=c1[nH]c2c(Cl)cccc2c(=O)n1CCCN1CC2CC1CN2c1cccc(F)c1 (stereo not shown) (as salt: maleate) [Example 42, 8-CHLORO-3-{3-[5-(3-FLUORO-PHENYL)-2,5-DIAZA-BICYCLO[2.2.1]HEPT-2-YL]-PROPYL}-1H-QUINAZOLINE-2,4-DIONE] | 168 to 170 °C
O=c1[nH]c2c(Cl)cccc2c(=O)n1CCCN1C2CCC1CN(c1ccc(Cl)cc1)C2 (as salt: maleate) | 186 to 188 °C
O=c1[nH]c2c(Cl)cccc2c(=O)n1CCCN1C2CCC1CN(c1ccc(Cl)c(Cl)c1)C2 (as salt: maleate) | 205 to 207 °C
O=c1[nH]c2ccccc2c(=O)n1CCCN1CC2CCC1CN2c1ccc(F)cc1 (stereo not shown) (as salt: maleate) [Example 49, 3-{3-[5-(4-FLUORO-PHENYL)-2,5-DIAZA-BICYCLO[2.2.2]OCT-2-YL]-PROPYL}-1H-QUINAZOLINE-2,4-DIONE] | 95 to 98 °C (dec.)
Cc1ccc2[nH]c(=O)n(CCCN3C4CCC3CN(c3ccc(Cl)cc3)C4)c(=O)c2c1 (as salt: hydrochloride) | > 300 °C
Cc1ccc(N2CC3CCC2CN3CCCn2c(=O)[nH]c3c(Cl)cccc3c2=O)c(C)c1 (stereo not shown) (as salt: maleate) | 149 to 151 °C
O=c1[nH]c2c(Cl)cccc2c(=O)n1CCCN1CC2CCC1CN2c1ccc(F)cc1 (stereo not shown) (as salt: maleate) [Example 46, 8-CHLORO-3-{3-[5-(4-FLUORO-PHENYL)-2,5-DIAZA-BICYCLO[2.2.2]OCT-2-YL]-PROPYL}-1H-QUINAZOLINE-2,4-DIONE] | 186 to 188 °C
O=c1[nH]c2c(Cl)cccc2c(=O)n1CCCN1CC2CCC1CN2c1ccc(Cl)c(Cl)c1 (stereo not shown) (as salt: maleate) [Example 48, 8-CHLORO-3-{3-[5-(3,4-DICHLORO-PHENYL)-2,5-DIAZA-BICYCLO[2.2.2]OCT-2-YL]-PROPYL}-1H-QUINAZOLINE-2,4-DIONE] | 68 to 73 °C (dec.)
O=c1[nH]c2c(Cl)cccc2c(=O)n1CCCCN1C2CCC1CN(c1ccc(Cl)cc1)C2 (as salt: maleate) | 235 to 238 °C
